Reference: ChEMBL document CHEMBL1932991, “Novel ATP competitive MK2 inhibitors with potent biochemical and cell-based activity throughout the series” (Bioorg Med Chem Lett, 2012)

Tests used:
[1] = molecular target: T1, MAP kinase-activated protein kinase 2 (Homo sapiens, UniProt P49137); assay: Inhibition of MK2-mediated HSP27 phosphorylation in LPS-stimulated human THP1 cells pre-incubated for 60 mins prior to LPS-induction measured after 60 mins by multi-spot assay; type: cell-based, THP-1
[2] = tested on: PBMC; assay: Inhibition of LPS-induced TNFalpha production in human PBMC pre-incubated for 30 mins prior to LPS-induction measured after 4 hrs by ELISA; type: functional, cell-based
[3] = tested on: THP-1; assay: Inhibition of LPS-induced TNFalpha production in human THP1 cells pre-incubated for 30 mins prior to LPS-induction measured after 4 hrs by ELISA; type: functional, cell-based
[4] = molecular target: T1, MAP kinase-activated protein kinase 2; assay: Inhibition of MK2 using Fluo-betaA-11A NeoMPS as substrate pre-incubated for 30 mins before substrate addition measured after 2 hrs by IMAP assay
[5] = Plasma protein binding in human; type: ADME, cell-free; conditions: read-out: PPB (converted)
[6] = Dissociation constant, pKa of the compound at pH 7.4; type: physicochemical
[7] = Permeability of the compound by PAMPA; type: ADME; conditions: for Papp: read-out: permeability

T1 sequence (P49137 whole entry): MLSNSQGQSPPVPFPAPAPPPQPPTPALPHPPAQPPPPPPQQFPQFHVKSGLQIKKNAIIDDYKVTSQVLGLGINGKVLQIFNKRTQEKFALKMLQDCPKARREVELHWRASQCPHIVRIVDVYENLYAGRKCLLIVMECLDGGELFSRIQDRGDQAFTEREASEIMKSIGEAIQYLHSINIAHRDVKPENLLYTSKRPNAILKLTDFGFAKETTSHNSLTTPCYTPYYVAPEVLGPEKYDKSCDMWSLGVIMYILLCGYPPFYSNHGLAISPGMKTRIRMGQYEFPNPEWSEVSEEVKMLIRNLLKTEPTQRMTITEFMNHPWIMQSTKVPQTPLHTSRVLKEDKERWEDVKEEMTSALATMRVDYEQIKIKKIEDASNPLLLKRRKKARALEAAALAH

Row | Compound | EC50 [1] | EC50 ([2]; Homo sapiens, PBMC) | EC50 ([3]; Homo sapiens, THP-1) | EC50 [4] | fraction unbound [5] | pKa [6] | EC50 ([2]; pbmc) | EC50 ([3]; thp-1) | permeability [7] | Papp [7]
1 | O=C(Nc1cc(-c2cc3c([nH]2)C2(CCNCC2)CNC3=O)ccn1)c1ccccn1 | 550 nM | 260 nM | 720 nM | 1.4 nM |  |  |  |  |  | 
2 | Cc1ccc(C(=O)Nc2nccc(-c3cc4c([nH]3)C3(CCNCC3)CNC4=O)n2)cc1C |  |  | 3400 nM | 3.1 nM |  |  |  |  |  | 
3 | O=C(Nc1cc(-c2cc3c([nH]2)C2(CCNCC2)CNC3=O)ccn1)c1ccc(C(F)(F)F)cc1 | 1300 nM | 1600 nM | 660 nM | 1.6 nM |  |  |  |  |  | 
4 | O=C(Nc1cc(-c2cc3c([nH]2)C2(CCNC2)CNC3=O)ccn1)c1ccc2ccccc2c1 (racemic) | 390 nM |  | 1700 nM | 0.62 nM | 0.002 | 8.5 |  |  |  | 
5 | O=C(Nc1cc(-c2cc3c([nH]2)C2(CCCNC2)CNC3=O)ccn1)c1ccc2ccccc2c1 (racemic) | 1100 nM |  |  | 7.6 nM |  |  | 70 nM | 780 nM |  | 
6 | O=C(Nc1cc(-c2cc3c([nH]2)C2(CCCNC2)CNC3=O)ccn1)c1cccc(OC(F)(F)F)c1 (racemic) | 610 nM | 200 nM | 620 nM | 11 nM | 0.013 | 8.2 |  |  |  | 
7 | O=C(Nc1cc(-c2cc3c([nH]2)C2(CCCNC2)CNC3=O)ccn1)c1ccc(F)cc1 (racemic) | 870 nM |  |  | 8.9 nM |  |  |  | 320 nM | 0.5 ×10⁻⁶ cm/s | 
8 | O=C(Nc1cc(-c2cc3c([nH]2)C2(CCNC2)CNC3=O)ccn1)c1ccc(F)cc1 (racemic) | 840 nM | 200 nM | 1100 nM | 1.3 nM |  |  |  |  |  | 
9 | O=C(Nc1cc(-c2cc3c([nH]2)C2(CCNCC2)CNC3=O)ccn1)c1ccc(F)cc1 | 3700 nM | 1400 nM | 1300 nM | 1.6 nM |  |  |  |  |  | 
10 | Cc1ccc(C(=O)Nc2cc(-c3cc4c([nH]3)C3(CCCNC3)CNC4=O)ccn2)cc1C (racemic) | 690 nM |  |  | 8.1 nM |  |  | 40 nM | 460 nM |  | 
11 | Cc1ccc(C(=O)Nc2cc(-c3cc4c([nH]3)C3(CCN(C)CC3)CNC4=O)ccn2)cc1C | 920 nM |  | 720 nM | 2.3 nM |  |  |  |  |  | 
12 | CN1CCC2(CC1)CNC(=O)c1cc(-c3ccnc(NC(=O)c4cccc(OC(F)(F)F)c4)c3)[nH]c12 | 830 nM | 50 nM | 1000 nM | 2.7 nM | 0.027 | 8.4 |  |  |  | 
13 | O=C(Nc1cc(-c2cc3c([nH]2)C2(CCNCC2)CNC3=O)ccn1)c1cccc(OC(F)(F)F)c1 | 130 nM | 160 nM | 80 nM | 1.5 nM | 0.042 | 9.1 |  |  |  | 
14 | CN1CCC2(CC1)CNC(=O)c1cc(-c3ccnc(NC(=O)c4cccc(F)c4)c3)[nH]c12 | 640 nM | 30 nM | 540 nM | 2.5 nM |  |  |  |  |  | 
15 | O=C(Nc1cc(-c2cc3c([nH]2)C2(CCNCC2)CNC3=O)ccn1)c1ccncc1 | > 10000 nM | 2600 nM | > 10000 nM | 2.6 nM |  |  |  |  |  | 
16 | Cc1ccc(C(=O)Nc2cc(-c3cc4c([nH]3)C3(CCNC3)CNC4=O)ccn2)cc1C (racemic) | 240 nM | 150 nM | 340 nM | 0.71 nM |  |  |  |  |  | 0.2 ×10⁻⁶ cm/s
17 | O=C(Nc1cc(-c2cc3c([nH]2)C2(CCNC2)CNC3=O)ccn1)c1cccc(F)c1 (racemic) | 480 nM | 170 nM | 1100 nM | 1.9 nM |  |  |  |  |  | 0.6 ×10⁻⁶ cm/s
18 | O=C(Nc1cc(-c2cc3c([nH]2)C2(CCNC2)CNC3=O)ccn1)c1ccccn1 (racemic) | 660 nM |  | 3900 nM | 4.1 nM |  |  |  |  |  | 
19 | O=C(Nc1cc(-c2cc3c([nH]2)C2(CCCNC2)CNC3=O)ccn1)c1cc(F)cc(F)c1 (racemic) | 590 nM | 140 nM | 1100 nM | 2.5 nM |  |  |  |  |  | 6.3 ×10⁻⁶ cm/s
20 | Cc1ccc(C(=O)Nc2cc(-c3cc4c([nH]3)C3(CCCNC3)CNC4=O)ccn2)cc1C (single isomer, unassigned; stereoisomer 2) | 5300 nM |  |  | 32 nM |  |  | 1200 nM | 8500 nM |  | 1 ×10⁻⁶ cm/s

Row | Compound | EC50 [1] | EC50 ([2]; Homo sapiens, PBMC) | EC50 ([3]; Homo sapiens, THP-1) | EC50 [4] | fraction unbound [5] | pKa [6] | EC50 ([2]; pbmc) | EC50 ([3]; thp-1) | permeability [7] | Papp [7]
21 | O=C(Nc1cc(-c2cc3c([nH]2)C2(CCCNC2)CNC3=O)ccn1)c1ccc2ccccc2c1 (single isomer, unassigned; stereoisomer 1) | 530 nM |  | 510 nM | 2.5 nM |  |  | 170 nM |  |  | 
22 | O=C(Nc1nccc(-c2cc3c([nH]2)C2(CCNCC2)CNC3=O)n1)c1ccc2ccccc2c1 |  |  | 3400 nM | 5.1 nM |  |  |  |  |  | 
23 | Cc1ccc(C(=O)Nc2cc(-c3cc4c([nH]3)C3(CCNCC3)CNC4=O)ccn2)cc1C | 350 nM | 890 nM | 230 nM | 1 nM |  |  |  |  |  | 
24 | CN1CCC2(CC1)CNC(=O)c1cc(-c3ccnc(NC(=O)c4ccc5ccccc5c4)c3)[nH]c12 | 730 nM | 70 nM | 1100 nM | 2.6 nM | 0.005 | 8.3 |  |  |  | 
25 | O=C(Nc1cc(-c2cc3c([nH]2)C2(CCNCC2)CNC3=O)ccn1)c1ccc2ccccc2c1 | 280 nM | 230 nM | 320 nM | 0.72 nM | 0.003 | 9.2 |  |  |  | 
26 | O=C(Nc1cc(-c2cc3c([nH]2)C2(CCCNC2)CNC3=O)ccn1)c1ccc(F)cc1 (stereo in doubt; 6dS1) | 320 nM |  |  | 2.4 nM |  |  | 70 nM | 310 nM | 1.1 ×10⁻⁶ cm/s | 
27 | O=C(Nc1cc(-c2cc3c([nH]2)C2(CCCNC2)CNC3=O)ccn1)c1ccc(F)cc1 (single isomer, unassigned; isomer 2) | 7400 nM |  |  | 31 nM |  |  | 1600 nM | > 10000 nM |  | 
28 | O=C(Nc1cc(-c2cc3c([nH]2)C2(CCCNC2)CNC3=O)ccn1)c1cccc(C(F)(F)F)c1 (racemic) | 590 nM | 140 nM | 850 nM | 3.3 nM |  |  |  |  |  | 
29 | O=C(Nc1nccc(-c2cc3c([nH]2)C2(CCNCC2)CNC3=O)n1)c1ccc(F)cc1 |  |  | 7900 nM | 15 nM |  |  |  |  |  | 
30 | O=C(Nc1cc(-c2cc3c([nH]2)C2(CCCNC2)CNC3=O)ccn1)c1ccc2ccccc2c1 (single isomer, unassigned) |  |  |  | 129 nM | 0.004 | 8.2 |  |  |  | 
31 | O=C(Nc1cc(-c2cc3c([nH]2)C2(CCCNC2)CNC3=O)ccn1)c1ccc(C(F)(F)F)cc1 (racemic) | 1200 nM | 480 nM | 1300 nM | 9.1 nM |  |  |  |  |  | 
32 | O=C(Nc1cc(-c2cc3c([nH]2)C2(CCNC2)CNC3=O)ccn1)c1cccc(OC(F)(F)F)c1 (racemic) | 400 nM | 650 nM | 690 nM | 1.6 nM | 0.017 | 8.4 |  |  |  | 
33 | O=C(Nc1cc(-c2cc3c([nH]2)C2(CCNCC2)CNC3=O)ccn1)c1cccc(F)c1 | 680 nM | 150 nM | 780 nM | 1.1 nM |  |  |  |  |  | 0.6 ×10⁻⁶ cm/s
34 | O=C(Nc1cc(-c2cc3c([nH]2)C2(CCCNC2)CNC3=O)ccn1)c1cccc(F)c1 (racemic) |  | 30 nM | 560 nM | 6.2 nM |  |  |  |  |  | 1.9 ×10⁻⁶ cm/s
35 | Cc1ccc(C(=O)Nc2cc(-c3cc4c([nH]3)C3(CCCNC3)CNC4=O)ccn2)cc1C (stereo in doubt; 3dS1) |  |  |  | 5.5 nM |  |  |  | 650 nM |  | 
36 | O=C(Nc1cc(-c2cc3c([nH]2)C2(CCCNC2)CNC3=O)ccn1)c1ccccn1 (racemic) | 660 nM | 130 nM | 480 nM | 4.2 nM |  |  |  |  |  | 0.2 ×10⁻⁶ cm/s
37 | O=C1NCC2(CCNCC2)c2[nH]c(-c3ccnc(NC(=O)c4cccc5ccccc45)c3)cc21 | 520 nM | 650 nM | 490 nM | 0.96 nM |  |  |  |  |  | 
38 | O=C1NCC2(CCNCC2)c2[nH]c(-c3ccnc(NC(=O)c4cccc5ccccc45)n3)cc21 |  |  | > 10000 nM | 14 nM |  |  |  |  |  | 
39 | O=C1NCC2(CCCNC2)c2[nH]c(-c3ccnc(NC(=O)c4cccc5ccccc45)c3)cc21 (racemic) | 1100 nM | 390 nM | 220 nM | 5.1 nM |  |  |  |  |  | 0.1 ×10⁻⁶ cm/s
